The target in data set [1] is T1, Jack bean urease (Canavalia ensiformis, UniProt P07374). Kind of data set: biochemical. The method, then:
The amount of NH3 produced with indophenol’s method reported in the literature was used to estimate Jack bean urease activity. In a 96-well plate, reaction mixtures containing 20 µL of Jack bean urease at 5 U/mL and 20 µL of compounds in 50 µL of potassium phosphate buffer (100 mM urea, 10 mM K2HPO4, 1 mM EDTA, and 10 mM LiCl, pH 8.2) were incubated for 30 min at 37 °C. Briefly, 50 μL each of phenol reagents (1%, w/v phenol and 0.005%, w/v sodium nitroprusside) and 50 μL of alkali reagent (0.5%, w/v NaOH and 0.1% NaOCl were added to each well. The absorbance at 625 nm was evaluated after 10 min by utilizing a microplate reader (OPTIMax, Tunable). Each of the reactions was accomplished in triplicate. The urease inhibition activities were calculated using the following formula:(1) Urease inhibition activity %=ODcontrol−ODsample×100/ODcontrol where ODcontrol and ODsample represent the optical densities in the absence and presence of sample, respectively, by using thiourea as standard.

The nature of data set [2]: DPPH free radical scavenging assay. The settings on record: 100 µg/mL, mean (SEM). How it is done: The 2,2-diphenyl-1-picrylhydrazyl (DPPH) test was used to assess radical scavenging activity. By using ascorbic acid as a reference inhibitor, 100 µL of DPPH ([…]), 20 µL of escalating concentrations of test compounds, and the volume adjusted to 200 µL in each well with methanol were incubated for 30 min at room temperature. At 517 nm, an OPTI Max Tunable microplate reader was used to perform assay measurements. The % inhibition caused by the investigated inhibitors was calculated after response rates were compared.
In general terms: DPPH is a stable violet radical that fades when it is reduced.

For data set [3], the target named is T1, Jack bean urease. Kind of data set: Kinetic analysis of urease inhibition (Lineweaver-Burk plot). As to conditions: for Vmax: substrate urea. It is filed as biochemical. The source says: The kinetic studies of the enzyme by the Lineweaver–Burk plot of 1/V versus 1/[S] in the presence of different compound concentrations produced a series of straight lines (Figure 3A). […] Thus, compounds 3f inhibit the urease non-competitively in order to form an enzyme inhibitor complex.
Based on IC50 values, compound 3j was identified as the most powerful. Changing the concentration of urea at different concentrations of 3j (0.00, 0.0042, 0.0085, and 0.017 M) was used to study kinetics. For urease kinetics, the urea concentration was quickly adjusted from 100, 50, 25, 12.5, 6.25, and 3.12 mM. The highest preliminary velocities were determined from initial linear portion of absorbance up to 10 min after the addition of enzyme at per minute’s interval. The inhibition type was determined by Lineweaver-Burk plot (1/V) versus 1/[S] mM^−1. The EI dissociation constant Ki was ascertained by secondary plot of 1/V against inhibitor concentration. […] The results were processed by using SoftMaxPro.

Where two headings read alike, the source gives them in different places.

The IC50 is the concentration that gives 50% inhibition. The term melting point denotes the temperature of the solid-liquid transition. For orientation: Ki means the equilibrium dissociation constant of an inhibitor or competing ligand from its target. Read a high Ki as lower affinity.

T1 sequence (P07374 whole entry, looked up): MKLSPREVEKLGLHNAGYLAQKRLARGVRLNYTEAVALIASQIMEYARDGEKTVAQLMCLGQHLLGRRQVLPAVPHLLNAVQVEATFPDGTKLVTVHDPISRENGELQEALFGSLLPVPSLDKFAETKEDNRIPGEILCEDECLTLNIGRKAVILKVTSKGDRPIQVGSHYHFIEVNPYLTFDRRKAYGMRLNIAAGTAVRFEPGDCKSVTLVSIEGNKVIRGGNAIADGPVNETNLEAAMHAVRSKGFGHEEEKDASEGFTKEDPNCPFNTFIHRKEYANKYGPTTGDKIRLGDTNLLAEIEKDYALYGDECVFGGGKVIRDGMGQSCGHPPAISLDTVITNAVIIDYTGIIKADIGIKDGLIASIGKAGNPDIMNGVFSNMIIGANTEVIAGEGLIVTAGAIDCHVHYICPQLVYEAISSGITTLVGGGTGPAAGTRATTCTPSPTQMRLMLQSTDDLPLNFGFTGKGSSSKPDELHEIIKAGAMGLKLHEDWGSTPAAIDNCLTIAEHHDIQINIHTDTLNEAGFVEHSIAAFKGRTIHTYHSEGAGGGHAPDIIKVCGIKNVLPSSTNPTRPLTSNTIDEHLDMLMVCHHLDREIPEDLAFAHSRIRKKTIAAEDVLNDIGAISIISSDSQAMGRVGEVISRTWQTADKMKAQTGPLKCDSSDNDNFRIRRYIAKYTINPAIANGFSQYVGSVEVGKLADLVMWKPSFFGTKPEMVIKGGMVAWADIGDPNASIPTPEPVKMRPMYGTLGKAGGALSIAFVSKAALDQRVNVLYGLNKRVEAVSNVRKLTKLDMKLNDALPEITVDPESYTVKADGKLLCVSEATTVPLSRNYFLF

`NC(N)=S` [Thiourea, reference compound]: the half-inhibitory concentration (IC50) on Jack bean urease [1] (Jack bean urease, 30 min at 37 °C, pH 8.2, mean (SEM), read-out: Urease Activity IC50 ± SEM) is 4740 nM.

For the compound `O=C(NC(=S)NC12CC3CC(CC(C3)C1)C2)c1ccc(Cl)cc1` [Compound 3e, N-(Adamantan-1-ylcarbamothioyl)-4-chlorobenzamide], the melting point lay in the range of 182 to 183 °C. Further, the “Free radical % Scavenging” value in data set [2] is 13.36 (0.01) %. Further, on Jack bean urease [1], the midpoint of inhibition, the IC50, lay at 30 nM.

For `O=C(NC(=S)NC12CC3CC(CC(C3)C1)C2)c1ccc(F)cc1` [Compound 3a, N-(Adamantan-1-ylcarbamothioyl)-4-fluorobenzamide], the melting point lay within 180 to 182 °C. For the same compound, the “Free radical % Scavenging” value in data set [2] is on record as 4.18 (0.03) %. Moreover, at Jack bean urease [1], half-maximal inhibition (IC50) was put at 10 nM.

Consider `CCCC(=O)NC(=S)NC12CC3CC(CC(C3)C1)C2` [Compound 3c, N-(Adamantan-1-ylcarbamothioyl)butyramide], for which the melting point was 136 to 137 °C. For the same compound, in data set [2], the “Free radical % Scavenging” value is reported as 2.51 (0.00) %. This compound also registered an IC50 against Jack bean urease [1] of 30 nM.

Compound `O=C(NC(=S)NC12CC3CC(CC(C3)C1)C2)c1ccccc1Cl` [Compound 3g, N-(Adamantan-1-ylcarbamothioyl)-2-chlorobenzamide] came in with a melting point of 185 to 187 °C. The “Free radical % Scavenging” value in data set [2] is 1.12 (0.03) %. For the same compound, the IC50 against Jack bean urease [1] worked out at 8.7 nM.

`O=C(NC(=S)NC12CC3CC(CC(C3)C1)C2)c1cc([N+](=O)[O-])cc([N+](=O)[O-])c1` [Compound 3i, N-(Adamantan-1-ylcarbamothioyl)-3,5-dinitrobenzamide] showed a melting point of 210 to 211 °C. In addition, the “Free radical % Scavenging” value in data set [2] is recorded as 5.91 (0.05) %. Besides, the IC50 against Jack bean urease [1] worked out at 10 nM.

Take `CCCCC(=O)NC(=S)NC12CC3CC(CC(C3)C1)C2` [Compound 3f, N-(Adamantan-1-ylcarbamothioyl)pentanamide]: the melting point lay in the range of 141 to 142 °C. Moreover, the “Free radical % Scavenging” value in data set [2] is reported as 4.26 (0.00) %. The same compound yielded an IC50 against Jack bean urease [1] of 30 nM.

In turn, `CCCCCCC(=O)NC(=S)NC12CC3CC(CC(C3)C1)C2` [Compound 3h, N-(Adamantan-1-ylcarbamothioyl)heptanamide] showed a melting point of 149 to 151 °C. In data set [2], the “Free radical % Scavenging” value is listed as 15.36 (0.01) %. On Jack bean urease [1], inhibition was half-maximal at 10 nM (IC50).

In the case of `O=C(NC(=S)NC12CC3CC(CC(C3)C1)C2)c1ccc(Cl)cc1Cl` [Compound 3b, N-(Adamantan-1-ylcarbamothioyl)-2,4-dichlorobenzamide], the melting point lay within 204 to 205 °C. The “Free radical % Scavenging” value in data set [2] was 1.46 (0.02) %. It took 10 nM to reach half-maximal inhibition on Jack bean urease [1] (IC50).

In the case of `CCCCCCCC(=O)NC(=S)NC12CC3CC(CC(C3)C1)C2` [Compound 3j, N-(Adamantan-1-ylcarbamothioyl)octanamide], the melting point is 158 to 159 °C. On Jack bean urease [3], this compound had an inhibition constant Ki of 7 nM. For the same compound, at Jack bean urease [3] (Lineweaver-Burk plot), the “Inhibition Type” value is listed as “Non-Competitive”. The Vmax on Jack bean urease [3] (inhibitor dose 0.0042 µM) is reported as 0.001561 ΔA/Min. The Vmax at Jack bean urease [3] (inhibitor dose 0.0085 µM) is given as 0.001224 ΔA/Min. Further, on Jack bean urease [3] (inhibitor dose 0.017 µM), the Vmax is 0.001208 ΔA/Min. The “Free radical % Scavenging” value in data set [2] was 9.96 (0.06) %.

Turning to `COc1ccc(C(=O)NC(=S)NC23CC4CC(CC(C4)C2)C3)cc1` [Compound 3d, N-(Adamantan-1-ylcarbamothioyl)-4-methoxybenzamide], the melting point is 178 to 179 °C. For the same compound, the “Free radical % Scavenging” value in data set [2] is 1.86 (0.01) %. At Jack bean urease [1], this compound had a concentration for half-maximal inhibition (IC50) of 20 nM.

Regarding `O=C1O[C@H]([C@@H](O)CO)C(O)=C1O` [Vitamin C, ascorbic acid, reference compound], the “Free radical % Scavenging” value in data set [2] is on record as 95.15 (0.05) %.

The record behind these values is article PMC8658948, “Exploring Amantadine Derivatives as Urease Inhibitors: Molecular Docking and Structure–Activity Relationship (SAR) Studies” (Molecules, 2021).
